{"source": "paper PMC3063124", "about": "(The Journal of neuroscience : the official journal of the …, 2011)", "key": {"GluN1/GluN2D [1]": {"molecular_target": "GluN1/GluN2D (Rattus norvegicus, UniProt P35439+Q62645)", "sequence (Q62645 28-1323, other chains not shown)": "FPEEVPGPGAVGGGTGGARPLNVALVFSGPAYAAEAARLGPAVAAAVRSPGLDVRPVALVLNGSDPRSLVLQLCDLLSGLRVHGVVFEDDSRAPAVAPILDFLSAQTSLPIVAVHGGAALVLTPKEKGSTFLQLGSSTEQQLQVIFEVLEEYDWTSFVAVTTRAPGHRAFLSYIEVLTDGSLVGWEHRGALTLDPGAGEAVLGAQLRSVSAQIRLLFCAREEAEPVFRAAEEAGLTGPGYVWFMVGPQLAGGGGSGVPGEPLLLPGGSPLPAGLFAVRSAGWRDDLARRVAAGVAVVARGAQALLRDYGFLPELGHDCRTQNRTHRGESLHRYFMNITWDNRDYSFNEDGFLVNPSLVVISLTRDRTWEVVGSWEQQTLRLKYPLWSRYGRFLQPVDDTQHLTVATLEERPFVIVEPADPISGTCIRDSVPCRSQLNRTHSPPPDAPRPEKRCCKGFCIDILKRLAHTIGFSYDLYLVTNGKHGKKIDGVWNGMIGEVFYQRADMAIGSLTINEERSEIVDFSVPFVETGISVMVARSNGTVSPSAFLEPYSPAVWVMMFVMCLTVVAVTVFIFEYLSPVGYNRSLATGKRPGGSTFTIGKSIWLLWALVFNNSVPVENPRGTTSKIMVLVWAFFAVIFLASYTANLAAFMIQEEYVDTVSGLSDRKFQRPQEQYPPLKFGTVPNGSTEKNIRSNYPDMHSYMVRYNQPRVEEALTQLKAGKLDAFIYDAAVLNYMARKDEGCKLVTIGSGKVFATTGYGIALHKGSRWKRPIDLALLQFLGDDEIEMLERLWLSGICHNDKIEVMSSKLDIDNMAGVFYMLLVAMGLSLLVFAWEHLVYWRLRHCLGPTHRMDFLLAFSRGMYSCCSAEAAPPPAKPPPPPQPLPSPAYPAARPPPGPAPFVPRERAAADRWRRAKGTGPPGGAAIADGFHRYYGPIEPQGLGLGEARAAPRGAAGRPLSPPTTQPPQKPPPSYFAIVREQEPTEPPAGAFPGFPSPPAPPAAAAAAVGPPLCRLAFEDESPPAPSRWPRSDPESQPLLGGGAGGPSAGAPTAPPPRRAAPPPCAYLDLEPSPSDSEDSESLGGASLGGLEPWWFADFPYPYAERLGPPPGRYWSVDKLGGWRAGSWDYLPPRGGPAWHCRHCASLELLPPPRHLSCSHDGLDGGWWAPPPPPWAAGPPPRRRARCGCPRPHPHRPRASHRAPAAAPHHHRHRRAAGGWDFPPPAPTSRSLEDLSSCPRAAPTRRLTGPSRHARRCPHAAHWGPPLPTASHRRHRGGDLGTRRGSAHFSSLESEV", "details": "read-out: EC50 of agonist"}, "GluN1/GluN2D [2]": {"molecular_target": "GluN1/GluN2D (Rattus norvegicus, UniProt Q62645)", "sequence (Q62645 28-1323, other chains not shown)": "as above", "format": "cell-based", "details": "absence of QNZ46; continuous presence of glycine"}}, "note": "Like-named read-outs stand apart in the source and are kept apart here."}
{"molecule": "N[C@@H](CCC(=O)O)C(=O)O", "note": "[glutamate]", "values": [{"measurement": "EC50", "setting": "GluN1/GluN2D [1]; in the absence of QNZ46", "result": 440, "unit": "nM"}, {"measurement": "EC50", "setting": "GluN1/GluN2D [1]; in the presence of 10 μM QNZ46", "result": 220, "unit": "nM"}, {"measurement": "time constant for agonist deactivation (τweighted)", "setting": "GluN1/GluN2D [2]", "result": 3810, "unit": "ms"}]}
